PubChem BioAssay (NCI)
Values joined by “and” are separate entries in the source; they are usually repeats but may differ in a detail not shown here. Equal entries are not always repeated.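 96-well plates; 48 h exposure; 5 concentrations. Endpoints by linear interpolation between flanking doses. Not reached: highest tested concentration assigned. GI50 = concentration required for 50% inhibition of growth. At the TGI there is no net growth.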

How the values were obtained:
Assay in all cases: NCI anticancer screen, dose series, 48 h
PC-3 prostate = test system: PC-3 prostate
M14 melanoma = test system: M14 melanoma
LOX IMVI melanoma = test system: LOX IMVI melanoma
OVCAR-3 ovarian = test system: OVCAR-3 ovarian
SF-539 CNS = test system: SF-539 CNS
NCI-H460 lung = test system: NCI-H460 lung
BT-549 breast = test system: BT-549 breast
SF-268 CNS = test system: SF-268 CNS
OVCAR-8 ovarian = test system: OVCAR-8 ovarian
MOLT-4 leukemia = test system: MOLT-4 leukemia

Structure (SMILES)	GI50 (PC-3 prostate)	TGI (PC-3 prostate)	GI50 (M14 melanoma) [µM]	TGI (M14 melanoma)	GI50 (LOX IMVI melanoma) [µM]	TGI (LOX IMVI melanoma)	GI50 (OVCAR-3 ovarian)	TGI (OVCAR-3 ovarian)	GI50 (SF-539 CNS) [µM]	TGI (SF-539 CNS)	GI50 (NCI-H460 lung)	TGI (NCI-H460 lung)	GI50 (BT-549 breast) [µM]	TGI (BT-549 breast)	GI50 (SF-268 CNS)	TGI (SF-268 CNS)	GI50 (OVCAR-8 ovarian) [µM]	TGI (OVCAR-8 ovarian)	GI50 (MOLT-4 leukemia)	TGI (MOLT-4 leukemia)
COC1=CC(c2ccc[nH]2)=N/C1=C\c1[nH]c(C)c(C(=O)CCC(=O)Oc2ccc3c(c2)CCC2C3CC[C@]3(C)C(=O)CC[C@@H]23)c1C (stereo not given in full)	6.52 µM	> 100 µM	12.3	33.4 µM	0.998	3.35 µM	17.5 µM	> 100 µM	14.3	> 100 µM	3.07 µM	> 100 µM	15.5	> 100 µM	5.58 µM	> 100 µM	8.37	> 100 µM	2.71 µM	> 100 µM
Cc1cc(N(CCCl)CCCl)ccc1C=Nc1cccnc1	22.9 µM	> 100 µM	22.5	> 100 µM	12.7	> 100 µM	5.33 µM	31.7 µM	4.81	> 100 µM	0.369 µM	> 47.7 µM	12.8	53.9 µM	11.3 µM	> 100 µM	28.3	> 100 µM	2.05 µM	> 80.9 µM
COC1/C=C/O[C@@]2(C)Oc3c(C)c(O)c4c(O)c(cc(O)c4c3C2=O)NC(=O)/C(C)=C\C=C\[C@H](C)C(O)[C@@H](C)[C@@H](O)[C@@H](C)[C@H](OC(C)=O)[C@@H]1C (stereo not given in full)	7.74 µM	20.4 µM and 34 µM	13.8	27 µM and 35.7 µM	–	26.1 µM and 29.5 µM	2.6 µM and 8.56 µM	15.1 µM and 22.9 µM	3.41	12.5 µM and 69.3 µM	18.8 µM and 32.7 µM	37 µM and 79.8 µM	29	37.7 µM and 84.4 µM	18.3 µM	33.4 µM and 61.7 µM	14.9	29.8 µM and 57.4 µM	7.42 µM	36.3 µM and 62.5 µM
COc1ccc2c(c1)C(=O)c1c-2c(NCCCN(C)C)nc2ccccc12	3.53 µM	14.2 µM	5.41	17.9 µM	1.44	2.82 µM	15.3 µM	31.7 µM	10.8	24.6 µM	1.33 µM	2.76 µM	21.8	62.3 µM	1.7 µM	4.71 µM	1.74	7.67 µM	1.43 µM	11.1 µM
Cc1ccc(NS(=O)(=O)c2ccc(-c3cnc(C4CC4)o3)cc2)cc1	3.27 µM	16.3 µM	1.56	11.7 µM	4.88	18.2 µM	2.1 µM	6.13 µM	3.32	13 µM	3.91 µM	14.9 µM	5.14	19.7 µM	6.19 µM	21.3 µM	5.24	24.3 µM	3.22 µM	20.9 µM
CN(C)c1c(Cl)c(=O)oc2c1ccc1nc(-c3ccccc3)sc12	–	> 100 µM	–	> 100 µM	–	> 100 µM	–	> 100 µM	–	> 100 µM	–	> 100 µM	–	> 100 µM	–	> 100 µM	–	> 100 µM	–	> 100 µM
CS(=O)(=O)c1nccc(-c2c(-c3cccc(OCc4ccc(F)cc4)c3)nc3sccn23)n1	4.62 µM	> 28 µM	25.9	> 100 µM	4.7	> 100 µM	19 µM	> 100 µM	> 94	> 100 µM	56.7 µM	> 100 µM	8.89	> 100 µM	40.1 µM	> 100 µM	59.9	> 100 µM	2.64 µM	> 100 µM
Cc1c(Cl)cccc1NC(=O)CC1Sc2ccccc2NC1=O (stereo not given)	–	> 86.5 µM	–	81.7 µM and 93 µM	–	83.8 µM and > 100 µM	–	31.2 µM and 41.9 µM	–	45.1 µM and 36.2 µM	–	61.5 µM and 62.5 µM	–	> 100 µM	18.4 µM and 37.1 µM	46.6 µM and > 100 µM	–	33.3 µM and 43.3 µM	–	> 100 µM
COc1ccc(-c2nc(-c3nc4ccc(F)cc4[nH]3)cc3c2[nH]c2ccccc23)cc1	1.69 µM	5.71 µM	2.54	7.12 µM	2.22	5.31 µM	2.23 µM	5.01 µM	2.8	9.33 µM	1.98 µM	5.81 µM	3.18	9.72 µM	3.24 µM	> 100 µM	1.78	6.69 µM	1.56 µM	6.14 µM
CCN(CC)c1ccc(NC(C(=O)c2ccccc2)c2ccccc2)cc1 (stereo not given)	3.62 µM	16.8 µM	2.16	5.91 µM	1.57	3 µM	3.05 µM	8.15 µM	2.11	4.98 µM	3.08 µM	11.4 µM	2.85	9.59 µM	4.23 µM	17.4 µM	3.28	> 100 µM	0.696 µM	24.4 µM
COc1ccccc1-c1cc2c3c(nc4ccccc42)C(=O)c2cccnc2-c3n1	14.9 µM	38.2 µM	5.1	17.3 µM	2.13	4.89 µM	1.56 µM	> 37.5 µM	14.8	35.4 µM	11.5 µM	26 µM	13.3	18.1 µM	17.6 µM	38.9 µM	8.01	28.6 µM	> 42.6 µM	> 100 µM
CCC(=O)Sc1ccccc1C(=O)Nc1ccc(Cl)cc1	10.8 µM	56.3 µM	6.42	43.9 µM	5.91	24.4 µM	6.34 µM	26.1 µM	11.2	30.5 µM	4.84 µM	36 µM	3.21	9.89 µM	9.67 µM	52.9 µM	17.4	> 100 µM	4.67 µM	92.6 µM
CO/N=C(\c1ccccc1)c1cnn(-c2ccccc2)c1N	> 25 µM	> 25 µM	> 25	> 25 µM	> 25	> 25 µM	> 25 µM	> 25 µM	> 25	> 25 µM	> 25 µM	> 25 µM	> 25	> 25 µM	> 25 µM	> 25 µM	> 25	> 25 µM	> 25 µM	> 25 µM
O=C1Nc2ccc(Cl)cc2/C1=C\c1c(-c2ccc(F)cc2)nc2ccccn12	2.43 µM	8.36 µM	3.02	8.62 µM	2.06	4.89 µM	1.89 µM	3.8 µM	2.09	5 µM	2.35 µM	5.89 µM	2.46	6.72 µM	2.34 µM	6.04 µM	2.28	5.99 µM	2.89 µM	8.13 µM
COc1ccc(-c2cc3cccc(OC)c3c(=O)o2)cc1OC	55.9 µM	> 100 µM	93.9	> 100 µM	11.5	> 100 µM	43.4 µM	> 100 µM	0.559	22.9 µM	31.1 µM	> 100 µM	0.636	88 µM	39.7 µM	> 100 µM	> 100	> 100 µM	47.9 µM	> 100 µM
Nc1ccccc1C#C/C=C\C#Cc1ccc(F)cc1F	10.7 µM	56.5 µM	16.5	32 µM	6.41	19.9 µM	6.2 µM	21.4 µM	7.22	22.4 µM	12.9 µM	28.7 µM	12.1	27.5 µM	5.95 µM	25.4 µM	25.2	84.3 µM	3.05 µM	> 100 µM
COc1cc(-c2c3c(cn2S(=O)(=O)c2ccccc2)-c2nc(N)sc2CC3)cc(OC)c1OC	0.549 µM	25.8 µM	0.612	> 100 µM	0.987	> 100 µM	0.414 µM	6.9 µM	0.548	5.07 µM	0.51 µM	18.4 µM	2.75	43.1 µM	4.46 µM	> 100 µM	2.4	29.2 µM	0.701 µM	43.1 µM
C=CC1CC12C(=O)C1OC2(C)C2C(=O)c3ccccc3C(=O)C12 (stereo not given)	54.7 µM	> 100 µM	> 100	> 100 µM	12.7	68.7 µM	13.9 µM	60.5 µM	> 82	> 100 µM	> 58.3 µM	> 100 µM	> 72.9	> 100 µM	> 54 µM	> 92.5 µM	> 42.8	> 85.8 µM	1.54 µM	11.1 µM
COc1ccc2c(c1)Oc1nc(N)c(C#N)c(N)c1C2Sc1ccc(SC)cc1 (stereo not given)	1.77 µM	3.27 µM	1.76	3.33 µM	1.68	3.21 µM	1.75 µM	3.19 µM	1.72	3.11 µM	2.04 µM	4.05 µM	1.63	3 µM	1.7 µM	3.29 µM	1.76	3.19 µM	2.83 µM	6.87 µM
CCCOC(=O)N[C@H]1CCc2c(Br)c(OC)c(OC)c(OC)c2-c2ccc(SC)c(=O)cc21	0.0197 µM	> 100 µM	0.0207	3.67 µM	< 0.0177	11.5 µM	0.0319 µM	10.4 µM	0.0213	0.0688 µM	0.0306 µM	2.02 µM	0.0223	6.39 µM	0.0455 µM	17.8 µM	0.0438	> 100 µM	0.0382 µM	> 100 µM
CCCC[C@@H]1NC(=O)[C@H](CCCCN)NC(=O)[C@H](CCCNC(=N)N)NC(=O)[C@H](CC(C)C)NC(=O)[C@@H](NC(=O)[C@H](Cc2cccc(Cl)c2)NC(=O)[C@@H]2CCCN2C(=O)[C@@H](NC(C)=O)C(C)C)CCSSC[C@@H](C(=O)N[C@@H](CCCCN)C(=O)N2CCC[C@H]2C(=O)N2CCC[C@H]2C(=O)N[C@@H](CCC(=O)O)C(N)=O)NC(=O)[C@H](Cc2ccccc2)NC(=O)[C@H](CO)NC(=O)[C@H](C)NC(=O)[C@@H]2CCCN2C1=O	> 50 µM	> 50 µM	> 50	> 50 µM	> 50	> 50 µM	> 50 µM	> 50 µM	> 50	> 50 µM	> 50 µM	> 50 µM	> 50	> 50 µM	> 50 µM	> 50 µM	> 50	> 50 µM	> 50 µM	> 50 µM
COc1cc(OC)c(-c2cc(=O)c3c(OC)c(OC)c(OC)c(OC)c3o2)cc1OC	–	> 100 µM	–	> 100 µM	–	> 100 µM	–	> 100 µM	–	> 100 µM	–	> 100 µM	–	> 100 µM	–	> 100 µM	–	> 100 µM	–	> 100 µM
Cc1c(Cl)ccc2c1NC(=O)C2(O)CC(=O)c1ccc(Cl)cc1Cl (stereo not given)	–	> 50 µM	–	> 50 µM	–	> 50 µM	–	> 50 µM	–	> 50 µM	–	> 50 µM	–	> 50 µM	–	> 50 µM	–	> 50 µM	–	> 50 µM
O=C(CC12CC3CC(CC(C3)C1)C2)NCCOCCOCCNC(=O)c1cc2c(o1)C(=O)c1ccccc1C2=O	1.38 µM	9.21 µM	0.211	0.462 µM	0.526	2.03 µM	0.243 µM	0.72 µM	1.14	2.37 µM	0.317 µM	1 µM	1.23	2.51 µM	1.68 µM	3.9 µM	0.813	11.6 µM	1.97 µM	4.98 µM
COc1ccc(OC)c(/C=C/[N+](=O)[O-])c1	2.53 µM and 12.4 µM	7.37 µM and 27.9 µM	–	4.44 µM and 6.86 µM	1.09	12.6 µM and 3.78 µM	–	4.9 µM and 3.31 µM	–	13.8 µM and 10.4 µM	2.91 µM	9.32 µM and 13.9 µM	–	11.9 µM	–	10 µM and 12.3 µM	3.31	17.3 µM and 15.2 µM	1.1 µM and 2.52 µM	5.31 µM and 9.59 µM
